Test results published in patent US20050148786A1, “Diimmonium compound and use thereof” (Nippon Kayaku Kabushiki Kaisha, priority 2003, published 2005).

Columns and labels:
[1] = maximum absorption wavelength (λmax) in dichloromethane; assay type: physicochemical
From the text: λmax: 1,102 nm (in dichloromethane);

[2] = thermal decomposition point (weight decrease starting point) by TG-DTA; assay type: physicochemical; settings: measured by TG-DTA
Description: the melting point: around 170° C.; and the thermal decomposition point (the weight decrease starting point): around 280° C. (measured by TG-DTA)

[3] = Comparative test of molar absorption coefficient measurement; assay type: physicochemical; settings: in dichloromethane; in M-1·cm-1
From the text: The compounds obtained in the above-mentioned Examples were subjected to the measurement of molar absorption coefficient (ε) in dichloromethane.

[4] = Stability test of moisture-and-heat resistance of near-IR absorption filter; assay type: physicochemical
Description: 1.2 part of each compound obtained in each Example was dissolved in 18.8 part of MEK. 80 part of a resin solution obtained by dissolving 25 part of an acrylic resin (Dianal BR-80, manufactured by Mitsubishi Rayon Co., Ltd.) in 75 part of MEK was mixed with the obtained solution to obtain a solution for coating. The solution was applied to form a film with a thickness of 2 to 4 μm on a polyester film and dried at 80° C. to obtain a near-IR absorption filter of the invention.
The obtained near-IR absorption filter was subjected to a stability test of moisture-and-heat resistance for 14 days in a constant temperature and constant humidity apparatus under 60° C. and 95% RH conditions. The filter was subjected to color measurement by a spectrophotometer before and after the test to calculate L*, a*, and b* values. If the + value of b* value is high, it means that the hue is yellowish and if b* value is close to 0, it means that the yellowish degree is low and filter is desirable and therefore, the hue evaluation and stability evaluation were done based on the b* value and its change.

[5] = Stability test of light fastness of cyanine dye film; assay type: physicochemical
Description: 0.3 part of the cyanine dye (OM-57) was dissolved in 15 part of tetrafluoropropanol and 0.04 part of the Compound No. 3 was added to the obtained solution to produce a coating solution. The obtained coating solution was applied to a polycarbonate substrate by spin coating to form a dye film. The […] the conditions: light source output: 0.36 W/m^2; bath temperature: 24° C.; black panel temperature: 40° C.; humidity: 30% RH: by a Weatherometer (Ci4000, manufactured by Atlas Co.). After that, the remaining ratio of the cyanine dye was measured by a spectrophotometer.
For comparison, a dye film was formed and evaluated in the same manner, except that the compound described in Patent Document No. 3; hexafluoroantimonate of tetrakis[p-di(n-butyl)aminophenyl]phenylenediimmonium (Comparative Example 7: Compound No. 153); was used in place of the Compound No. 1.

[6] = Stability test of light fastness of diimmonium compound thin film; assay type: physicochemical
Description: 0.1 part of the Compound No. 3 was added to 10 part of tetrafluoropropanol to produce a coating solution. The obtained coating solution was applied to a polycarbonate substrate by spin coating to form a thin film of the diimmonium compound. The […] source output: 0.36 W/m^2; bath temperature: 24° C.; black panel temperature: 40° C.; humidity: 30% RH: by a Weatherometer (Ci4000, manufactured by Atlas Co.). After that, the remaining ratio of the diimmonium compound was measured by a spectrophotometer.
For comparison, a dye film was formed and evaluated in the same manner, except that the compound described in Patent Document No. 3; hexafluoroantimonate of tetrakis[p-di(n-butyl)aminophenyl]phenylenediimmonium (Comparative Example 8: Compound No. 153); was used in place of the Compound No. 3.

[7] = Comparative test of solubility measurement; settings: room temperature
Description: The solubility was measured for the compounds obtained in the above-mentioned Examples at a room temperature in methyl ethyl ketone (MEK) and toluene.

[8] = Weatherometer 0.36 W/m^2, 24° C., 30% RH, 100-hour
[9] = Weatherometer 0.36 W/m^2, 24° C., 30% RH, 150-hour

SMILES: N#CCCCN(CCCC#N)c1ccc([N+](=C2C=CC(=[N+](c3ccc(N(CCCC#N)CCCC#N)cc3)c3ccc(N(CCCC#N)CCCC#N)cc3)C=C2)c2ccc(N(CCCC#N)CCCC#N)cc2)cc1.O=S(=O)([N-]S(=O)(=O)C(F)(F)F)C(F)(F)F.O=S(=O)([N-]S(=O)(=O)C(F)(F)F)C(F)(F)F [Compound No. 3]
- λmax [1]: 1,064 nm
- thermal decomposition point (the weight decrease starting point) [2]: around 282 °C
- molar absorption coefficient (ε) [3]: 109,000
- b* value, difference ([4]; 14-day after minus initial, 60° C. and 95% RH): 2.5
- b* value, 14-day after ([4]; acrylic resin filter, 14 days at 60° C. and 95% RH): 6.1
- b* value, initial period ([4]; acrylic resin filter, before test): 3.6
- remaining ratio of cyanine dye (%), initial period ([5]; OM-57 dye film with compound added, before irradiation): 100%
- remaining ratio of cyanine dye (%), 100-hour after [5, 8]: 47%
- remaining ratio of cyanine dye (%), 150-hour after [5, 9]: 27%
- remaining ratio of diimmonium compound (%), 100-hour after [6, 8]: 88%
- remaining ratio of diimmonium compound (%), 150-hour after [6, 9]: 86%
- remaining ratio of diimmonium compound (%), initial period ([6]; thin film on polycarbonate, before irradiation): 100%
- solubility in MEK ([7]; methyl ethyl ketone): 2%
- solubility in toluene ([7]; toluene): insoluble
